From ChEMBL document CHEMBL5625248, “Identification of unique indolylcyanoethylenyl sulfonylanilines as novel structural scaffolds of potential antibacterial agents” (Eur J Med Chem, 2023)
Converted amounts (≈) assume the structure as drawn.

Columns and labels:
Format in all cases: functional
[1] = test system: Pseudomonas aeruginosa; assay: Antibacterial activity against Pseudomonas aeruginosa ATCC 27853 assessed as inhibition of bacterial growth incubated for 18 hrs by two fold broth microdilution assay
[2] = test system: Staphylococcus aureus; assay: Antibacterial activity against Staphylococcus aureus ATCC 29213 assessed as inhibition of bacterial growth incubated for 18 hrs by two fold broth microdilution assay
[3] = test system: Pseudomonas aeruginosa; assay: Antibacterial activity against Pseudomonas aeruginosa assessed as inhibition of bacterial growth incubated for 18 hrs by two fold broth microdilution assay
[4] = test system: Staphylococcus aureus; assay: Antibacterial activity against Staphylococcus aureus ATCC 25923 assessed as inhibition of bacterial growth incubated for 18 hrs by two fold broth microdilution assay
[5] = test system: Klebsiella pneumoniae; assay: Antibacterial activity against Klebsiella pneumoniae assessed as inhibition of bacterial growth incubated for 18 hrs by two fold broth microdilution assay
[6] = test system: Escherichia coli; assay: Antibacterial activity against Escherichia coli assessed as inhibition of bacterial growth incubated for 18 hrs by two fold broth microdilution assay
[7] = test system: Enterococcus faecalis; assay: Antibacterial activity against Enterococcus faecalis assessed as inhibition of bacterial growth incubated for 18 hrs by two fold broth microdilution assay
[8] = test system: Acinetobacter baumannii; assay: Antibacterial activity against Acinetobacter baumannii assessed as inhibition of bacterial growth incubated for 18 hrs by two fold broth microdilution assay
[9] = test system: Escherichia coli; assay: Antibacterial activity against Escherichia coli ATCC 25922 assessed as inhibition of bacterial growth incubated for 18 hrs by two fold broth microdilution assay
[10] = test system: Staphylococcus aureus; assay: Antibacterial activity against methicilin-resistant Staphylococcus aureus N315 assessed as inhibition of bacterial growth incubated for 18 hrs by two fold broth microdilution assay
[11] = test system: Staphylococcus aureus; assay: Antibacterial activity against Staphylococcus aureus assessed as inhibition of bacterial growth incubated for 18 hrs by two fold broth microdilution assay

| SMILES | MIC [1] | MIC [2] | MIC [3] | MIC [4] | MIC [5] | MIC [6] | MIC [7] | MIC [8] | MIC [9] | MIC [10] | MIC [11] |
| --- | --- | --- | --- | --- | --- | --- | --- | --- | --- | --- | --- |
| N#C/C(=C\c1cn(CC2CCCC2)c2ccccc12)S(=O)(=O)c1ccc(N)cc1 | 64 µg/mL (≈ 158 µM) | 16 µg/mL (≈ 39.5 µM) | 64 µg/mL (≈ 158 µM) | 256 µg/mL (≈ 631 µM) | 4 µg/mL (≈ 9.86 µM) | 256 µg/mL (≈ 631 µM) | 32 µg/mL (≈ 78.9 µM) | 32 µg/mL (≈ 78.9 µM) | 8 µg/mL (≈ 19.7 µM) | 256 µg/mL (≈ 631 µM) | 256 µg/mL (≈ 631 µM) |
| N#C/C(=C\c1cn(Cc2ccccc2Cl)c2ccccc12)S(=O)(=O)c1ccc(N)cc1 | 2 µg/mL (≈ 4.46 µM) | 2 µg/mL (≈ 4.46 µM) | 16 µg/mL (≈ 35.7 µM) | 1 µg/mL (≈ 2.23 µM) | 1 µg/mL (≈ 2.23 µM) | 32 µg/mL (≈ 71.4 µM) | 16 µg/mL (≈ 35.7 µM) | 16 µg/mL (≈ 35.7 µM) | 64 µg/mL (≈ 143 µM) | 256 µg/mL (≈ 571 µM) | 1 µg/mL (≈ 2.23 µM) |
| CC(=O)Nc1ccc(S(=O)(=O)/C(C#N)=C/c2cn(Cc3ccc(Cl)c(Cl)c3)c3ccccc23)cc1 | 16 µg/mL (≈ 30.5 µM) | 4 µg/mL (≈ 7.63 µM) | 128 µg/mL (≈ 244 µM) | 32 µg/mL (≈ 61 µM) | 64 µg/mL (≈ 122 µM) | 128 µg/mL (≈ 244 µM) | 128 µg/mL (≈ 244 µM) | 32 µg/mL (≈ 61 µM) | 256 µg/mL (≈ 488 µM) | 256 µg/mL (≈ 488 µM) | 128 µg/mL (≈ 244 µM) |
| N#C/C(=C\c1cn(Cc2ccc(Cl)c(Cl)c2)c2ccccc12)S(=O)(=O)c1ccc(N)cc1 | 64 µg/mL (≈ 133 µM) | 4 µg/mL (≈ 8.29 µM) | 31 µg/mL (≈ 64.3 µM) | 16 µg/mL (≈ 33.2 µM) | 4 µg/mL (≈ 8.29 µM) | 256 µg/mL (≈ 531 µM) | 128 µg/mL (≈ 265 µM) | 4 µg/mL (≈ 8.29 µM) | 0.5 µg/mL (≈ 1.04 µM) | 16 µg/mL (≈ 33.2 µM) | 128 µg/mL (≈ 265 µM) |
| C#CCn1cc(/C=C(\C#N)S(=O)(=O)c2ccc(NC(C)=O)cc2)c2ccccc21 | 2 µg/mL (≈ 4.96 µM) | 8 µg/mL (≈ 19.8 µM) | 4 µg/mL (≈ 9.91 µM) | 4 µg/mL (≈ 9.91 µM) | 4 µg/mL (≈ 9.91 µM) | 8 µg/mL (≈ 19.8 µM) | 4 µg/mL (≈ 9.91 µM) | 8 µg/mL (≈ 19.8 µM) | 2 µg/mL (≈ 4.96 µM) | 2 µg/mL (≈ 4.96 µM) | 2 µg/mL (≈ 4.96 µM) |
| N#C/C(=C\c1c[nH]c2cc(F)ccc12)S(=O)(=O)c1ccc(N)cc1 | 8 µg/mL (≈ 23.4 µM) | 128 µg/mL (≈ 375 µM) | 4 µg/mL (≈ 11.7 µM) | 4 µg/mL (≈ 11.7 µM) | 64 µg/mL (≈ 187 µM) | 256 µg/mL (≈ 750 µM) | 8 µg/mL (≈ 23.4 µM) | 8 µg/mL (≈ 23.4 µM) | 8 µg/mL (≈ 23.4 µM) | 16 µg/mL (≈ 46.9 µM) | 4 µg/mL (≈ 11.7 µM) |
| CC(=O)Nc1ccc(S(=O)(=O)/C(C#N)=C/c2cn(CC(=O)N3CCCCC3)c3ccccc23)cc1 | 256 µg/mL (≈ 522 µM) | 128 µg/mL (≈ 261 µM) | 8 µg/mL (≈ 16.3 µM) | 2 µg/mL (≈ 4.08 µM) | 64 µg/mL (≈ 130 µM) | 128 µg/mL (≈ 261 µM) | 128 µg/mL (≈ 261 µM) | 64 µg/mL (≈ 130 µM) | 256 µg/mL (≈ 522 µM) | 128 µg/mL (≈ 261 µM) | 256 µg/mL (≈ 522 µM) |
| CC(=O)Nc1ccc(S(=O)(=O)/C(C#N)=C/c2c[nH]c3ccc([N+](=O)[O-])cc23)cc1 | 32 µg/mL (≈ 78 µM) | 32 µg/mL (≈ 78 µM) | 64 µg/mL (≈ 156 µM) | 128 µg/mL (≈ 312 µM) | 64 µg/mL (≈ 156 µM) | 64 µg/mL (≈ 156 µM) | 32 µg/mL (≈ 78 µM) | 8 µg/mL (≈ 19.5 µM) | 64 µg/mL (≈ 156 µM) | 64 µg/mL (≈ 156 µM) | 32 µg/mL (≈ 78 µM) |
| CC(=O)Nc1ccc(S(=O)(=O)/C(C#N)=C/c2cn(CC(=O)N3CCCC3)c3ccccc23)cc1 | 128 µg/mL (≈ 269 µM) | 16 µg/mL (≈ 33.6 µM) | 64 µg/mL (≈ 134 µM) | 128 µg/mL (≈ 269 µM) | 64 µg/mL (≈ 134 µM) | 64 µg/mL (≈ 134 µM) | 128 µg/mL (≈ 269 µM) | 64 µg/mL (≈ 134 µM) | 128 µg/mL (≈ 269 µM) | 256 µg/mL (≈ 537 µM) | 128 µg/mL (≈ 269 µM) |
| N#C/C(=C\c1cn(CCN2CCOCC2)c2ccccc12)S(=O)(=O)c1ccc(N)cc1 | 64 µg/mL (≈ 147 µM) | 64 µg/mL (≈ 147 µM) | 64 µg/mL (≈ 147 µM) | 32 µg/mL (≈ 73.3 µM) | 128 µg/mL (≈ 293 µM) | 16 µg/mL (≈ 36.7 µM) | 256 µg/mL (≈ 586 µM) | 64 µg/mL (≈ 147 µM) | 0.5 µg/mL (≈ 1.15 µM) | 16 µg/mL (≈ 36.7 µM) | 32 µg/mL (≈ 73.3 µM) |
| CC(=O)Nc1ccc(S(=O)(=O)/C(C#N)=C/c2cn(Cc3cccc(Cl)c3)c3ccccc23)cc1 | 64 µg/mL (≈ 131 µM) | 8 µg/mL (≈ 16.3 µM) | 64 µg/mL (≈ 131 µM) | 128 µg/mL (≈ 261 µM) | 16 µg/mL (≈ 32.7 µM) | 128 µg/mL (≈ 261 µM) | 256 µg/mL (≈ 522 µM) | 64 µg/mL (≈ 131 µM) | 4 µg/mL (≈ 8.16 µM) | 128 µg/mL (≈ 261 µM) | 64 µg/mL (≈ 131 µM) |
| CCN(CC)C(=O)Cn1cc(/C=C(\C#N)S(=O)(=O)c2ccc(NC(C)=O)cc2)c2ccccc21 | 256 µg/mL (≈ 535 µM) | 2 µg/mL (≈ 4.18 µM) | 32 µg/mL (≈ 66.9 µM) | 8 µg/mL (≈ 16.7 µM) | 64 µg/mL (≈ 134 µM) | 32 µg/mL (≈ 66.9 µM) | 128 µg/mL (≈ 267 µM) | 128 µg/mL (≈ 267 µM) | 128 µg/mL (≈ 267 µM) | 128 µg/mL (≈ 267 µM) | 256 µg/mL (≈ 535 µM) |
| CN(C)CCn1cc(/C=C(\C#N)S(=O)(=O)c2ccc(N)cc2)c2ccccc21 | 32 µg/mL (≈ 81.1 µM) | 8 µg/mL (≈ 20.3 µM) | 64 µg/mL (≈ 162 µM) | 2 µg/mL (≈ 5.07 µM) | 128 µg/mL (≈ 324 µM) | 128 µg/mL (≈ 324 µM) | 64 µg/mL (≈ 162 µM) | 16 µg/mL (≈ 40.6 µM) | 256 µg/mL (≈ 649 µM) | 128 µg/mL (≈ 324 µM) | 2 µg/mL (≈ 5.07 µM) |
| N#C/C(=C\c1c[nH]c2cc(Br)ccc12)S(=O)(=O)c1ccc(N)cc1 | 32 µg/mL (≈ 79.5 µM) | 32 µg/mL (≈ 79.5 µM) | 32 µg/mL (≈ 79.5 µM) | 16 µg/mL (≈ 39.8 µM) | 16 µg/mL (≈ 39.8 µM) | 32 µg/mL (≈ 79.5 µM) | 128 µg/mL (≈ 318 µM) | 8 µg/mL (≈ 19.9 µM) | 128 µg/mL (≈ 318 µM) | 128 µg/mL (≈ 318 µM) | 256 µg/mL (≈ 636 µM) |
